The results in this text go back to patent US20150322033A1, “ANTIBACTERIAL AGENT” (priority 2012, published 2015).

Values after ≈ are worked out from the molar mass of the structure shown. Like-named read-outs stand apart in the source and are kept apart here. Bounds are passed on as bounds.

Assay [1] deals with S. aureus FDA209P (ATCC 6538P). Description: microbe, parasite or virus in culture. The format is cell-based, Staphylococcus aureus. Conditions: Staphylococcus aureus. The method in brief: (§1)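 Overnight TSB cultures at 37 °C adjusted to A578 0.3, diluted 500-fold in CAMHB and mixed 1:1 with compound in CAMHB; static overnight incubation at 37 °C. MIC reported in mg/L; Mu50 NR-1 also tested in some runs.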

The next assay concerns S. aureus Mu50. Description: microbe, parasite or virus in culture. The format is cell-based, Staphylococcus aureus. Conditions: for MIC: Staphylococcus aureus; for MIC ratio: (MIC value for S. aureus FDA209P)/(MIC value for S. aureus Mu50). The essentials: as §1
Another assay addresses T1, GyrA(wt) + GyrB(wt) (Staphylococcus aureus, UniProt P20831).
T1 construct: made in house; host or cells: E. coli BL21(DE3)
In words: DNA cleavage assay with GyrA(wt) and GyrB(wt). The format is biochemical. Conditions: for Ratio of cleaved DNA (%) / Ratio of substrate plasmid DNA (%): Table 18. From the text:
The gene sequence encoding the wild-type GyrA of Staphylococcus aureus (henceforth also referred to as “GyrA(wt)”) shown as SEQ ID NO: 1 was cloned into the plasmid pMAL-c2 (produced by New England Biolabs) (the resultant is henceforth also referred to as “pMAL-c2-gyrA”).
The gene sequence encoding the wild-type GyrB of Staphylococcus aureus (henceforth also referred to as “GyrB(wt)”) shown as SEQ ID NO: 2 was cloned into the plasmid pMAL-c2 (produced by New England Biolabs) (the resultant is henceforth also referred to as “pMAL-c2-gyrB”).
(§2) E. coliBL21(DE3) (produced by Invitrogen) was transformed with pMAL-c2-gyrA mentioned above, with pMAL-c2-gyrB mentioned above, or with pMAL-c2-SAGAmut84 containing a mutant gyrA encoding the amino acid sequence of GyrA(wt) in which serine residue at the 84th position from the amino terminus is substituted with a leucine residue (see, Hiramatsu K., Igarashi M., Morimoto Y, Baba T., Umekita M., Akamatsu Y., Int. J. Antimicrob. Agents, 2012 June; 39(6), 478-85). To the culture medium of the resulting transformed Escherichia coli, 1 mM […] (produced by Wako Pure Chemical Industries) was added to induce expression of maltose-binding GyrA(wt), maltose-binding GyrB(wt), or maltose-binding mutant GyrA(S84L), and the bacterium was cultured overnight at 25° C. After completion of the culture, the cells were collected, and suspended in a buffer (20 mM Tris-HCl (pH 8.0), 200 mM sodium chloride, 1 mM ethylenediaminetetraacetic acid (EDTA), 1 mM dithiothreitol (DTT)), a protein extracting reagent (10× BugBuster (registered trademark), produced by Novagen) in a volume of 1/10 of the volume of the buffer, and 2.5 μL/10 mL of the buffer of Benzonase (registered trademark) nuclease (produced by Novagen) were added, the mixture was left standing at 25° C. for 30 minutes, and the cells were disrupted and lysed to obtain a disrupted cell suspension containing the maltose-binding GyrA(wt), maltose-binding GyrB(wt), or maltose-binding mutant GyrA(S84L).
(§3) Then, each disrupted cell suspension mentioned above was added to a column filled with an amylose resin covalently bound with maltose (produced by Novagen). A buffer (20 mM Tris-HCl (pH 8.0), 200 mM sodium chloride, 1 mM EDTA) containing 10 mM maltose was added to the column to elute the maltose-binding GyrA(wt), maltose-binding GyrB(wt), and maltose-binding mutant GyrA(S84L).
(§4) To each eluate, 4 units/1 mL of the eluate of protease (Factor Xa, produced by Amersham) was added, and the mixture was left standing at 25° C. for 3 hours and 30 minutes to cleave the maltose-binding proteins, GyrA(wt), GyrB(wt), and mutant GyrA(S84L) from the maltose-binding GyrA(wt), maltose-binding GyrB(wt), and maltose-binding mutant GyrA(S84L).
(§5) Then, GyrA(wt), GyrB(wt), and mutant GyrA(S84L) were concentrated by using an ultrafiltration unit (YM-50 Filter Unit, produced by Millipore).
(§6) The concentrated GyrA(wt), GyrB(wt), and mutant GyrA(S84L) were each suspended in a buffer (35 mM Tris-HCl (pH 7.5), 24 mM potassium chloride, 6 mM magnesium chloride, 1.8 mM spermidine, 0.36 mg/mL bovine serum albumin, 5 mM DTT, 50 volume % glycerol) at a concentration of 1 μg/μL for GyrA(wt), 2 μg/μL for GyrB(wt), or 1 μg/μL for mutant GyrA(S84L).
A substrate plasmid DNA, pTWV228 (0.4 μg, produced by Takara Bio), and levofloxacin (LVFX) or apigenin were added to a buffer (35 mM Tris-HCl (pH 7.5), 24 mM potassium chloride, 6 mM magnesium chloride, 1.8 mM spermidine, 0.36 mg/mL bovine serum albumin, 5 mM DTT), and 0.15 μL of the enzyme solution of GyrA(wt) and […] of the enzyme solution of GyrB(wt) were added to the mixture to prepare a reaction mixture in a total volume of 20
Levofloxacin was added at a final concentration of 0, 0.5, 1, 2, 4, 8, 16, or 32 μg/mL.
The aforementioned reaction solution was left standing at 25° C. for 30 minutes to allow the reaction. […]

Another assay deals with T2, GyrA(S84L) + GyrB(wt) (Staphylococcus aureus, UniProt P20831, S84L).
T2 construct: made in house; host or cells: E. coli BL21(DE3)
In words: DNA cleavage assay with mutant GyrA(S84L) and GyrB(wt). The format is biochemical. Conditions: IC50 (μg/mL) GyrA(S84L) + GyrB(wt), Example 9, Table 18.
From the text: as §2, §3, §4, §5, §6
An assay was performed in the same manner as that of the cleavage of the plasmid DNA with GyrA(wt) and GyrB(wt) mentioned above, provided that 0.15 μL of an enzyme solution of mutant GyrA(S84L) and 0.2 μL of the enzyme solution of GyrB(wt) were added instead of […] of the enzyme solution of GyrA(wt) and 0.2 μL of the enzyme solution of GyrB(wt). In FIGS. 3 and 4, the symbols “S”, “L”, and “N” have the same meanings as those explained for FIGS. 1 and 2.
IC50 value of levofloxacin or apigenin was also calculated from the visualized images shown in FIGS. 3 and 4 in the same manner as that used for the calculation using the results shown in FIGS. 1 and 2.
The DNA cleavage assay was performed with M-246 in the same manner as that used in Example 4.

The subject of the next assay is S. aureus Mu50 NR1-1. Description: MIC by broth microdilution, S. aureus Mu50 NR1-1. The format is cell-based. Conditions: Staphylococcus aureus, MU50NR11; Example 3, Table 13; read-out: MIC (mg/L) Mu50 NR1-1 (S80F, w). As to the method: MIC values of the flavones and quinolone for the strains were measured in the same manners as those of Example 1, except that S. aureus Mu50 NR-1 was also used as Staphylococcus aureus in addition to S. aureus FDA209P and S. aureus Mu50, cell suspensions of the strains were prepared.
S. aureus Mu50 NR1-1 mentioned in Table 13 is a strain selected stepwise from the clinically isolated S. aureus Mu50 strain with deoxynybomycin, and it has a topoisomerase IV encoded by parC in which a […] (see, Hiramatsu K. et al., J. Antimicrob. Agents, 2012, June; 39 (6), 478-85).
In Table 13, the descriptions in the parentheses after the strains indicate the mutated amino acid residue and its position, as represented by (the mutation of topoisomerase IV resulting from the mutation of parCand the mutation of DNA gyrase resulting from the mutation of gyrA). The character “w” means wild-type, representing without mutation.

Setting [2] is: Example 2, Table 12, read-out: MIC (mg/L) S. aureus FDA209P.
Where [3] appears, read: Example 3, Table 13, read-out: MIC (mg/L) FDA209P (w, w).
[4] abbreviates: MU50, read-out: MIC (mg/L) S. aureus Mu50, Example 2, Table 12.

For the compound `COc1ccc2c(=O)cc(-c3ccc(O)c(OC)c3)oc2c1` [M-246], the MIC in assay [1] (Example 8, Table 17, read-out: MIC FDA209P) was 128 mg/L (≈ 429 µM); with S. aureus Mu50 (MU50, read-out: MIC Mu50, Example 8, Table 17), 4 mg/L (≈ 13.4 µM). Further, the “Ratio of cleaved DNA (%)” value is on record as 18% at GyrA(wt) + GyrB(wt) (0.5 μg/mL); 23% at GyrA(wt) + GyrB(wt) (1 μg/mL); 29% at GyrA(wt) + GyrB(wt) (2 μg/mL); 40% on GyrA(wt) + GyrB(wt) (4 μg/mL); 47% at GyrA(wt) + GyrB(wt) (8 μg/mL); 56% on GyrA(wt) + GyrB(wt) (16 μg/mL). The “Ratio of cleaved DNA (%)” value on GyrA(wt) + GyrB(wt) (32 μg/mL) is on record as 67%. Further, the “Ratio of substrate plasmid DNA (%)” value at GyrA(wt) + GyrB(wt) (0.5 μg/mL) amounted to 82%; on GyrA(wt) + GyrB(wt) (1 μg/mL), 77%; on GyrA(wt) + GyrB(wt) (2 μg/mL) it was 71%; at GyrA(wt) + GyrB(wt) (4 μg/mL), 60%; at GyrA(wt) + GyrB(wt) (8 μg/mL), 53%; on GyrA(wt) + GyrB(wt) (16 μg/mL), 44%. On GyrA(wt) + GyrB(wt) (32 μg/mL), the “Ratio of substrate plasmid DNA (%)” value came to 33%. Further, the IC50 on GyrA(wt) + GyrB(wt) (IC50 (μg/mL) GyrA(wt) + GyrB(wt), Example 9, Table 18) is 53.6 µM; at GyrA(S84L) + GyrB(wt) it was 3.35 µM.

In the case of `COc1ccc2c(=O)cc(-c3ccc(O)cc3)oc2c1` [No. 69, 2-(4-hydroxyphenyl)-7-methoxychromen-4-one], the MIC was over 128 mg/L in assay [1] (Example 1, Tables 1 to 10, read-out: MIC (mg/L) FDA209P); 128 mg/L (≈ 477 µM) in assay [1] (setting [2]); over 128 mg/L in assay [1] (setting [3]); 16 mg/L (≈ 59.6 µM) in the assay on S. aureus Mu50 (MU50, read-out: MIC (mg/L) Mu50, Example 1, Tables 1 to 10); 8 mg/L (≈ 29.8 µM) with S. aureus Mu50 (setting [4]); over 128 mg/L in the assay on S. aureus Mu50 NR1-1. In addition, the MIC ratio with S. aureus Mu50 is 16.

As to `CCn1cc(C(=O)O)c(=O)c2cc(F)c(N3CCNCC3)cc21` [Norfloxacin, norfloxacin, reference compound], the MIC came to 0.5 mg/L (≈ 1.57 µM) in assay [1] (setting [2]), 0.5 mg/L (≈ 1.57 µM) in assay [1] (setting [3]), 64 mg/L (≈ 200 µM) in the assay with S. aureus Mu50 (setting [4]) and 16 mg/L (≈ 50.1 µM) in the assay on S. aureus Mu50 NR1-1. Moreover, the MIC ratio with S. aureus Mu50 is 0.008.
